9 molecules from patent US6518243B1, “Desleucyl glycopeptide antibiotics and methods of making same” (Trustees of Princeton University, priority 1999, dated 2003) can be followed below.

What all share (assay): Zone of inhibition screen, 96 well agar array format
One experiment has as its system E. faecalis (CL 4877). In kind it is cell-based. More on the design: scale not given here. The procedure, abridged: (§1)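 Panel screening of every compound against several bacterial strains, among them E. faecium ATCC 49624, was done in a 96-well agar array.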
A further experiment concerns E. faceium (ATCC 49624). The experiment is classed as cell-based, E. faecium. On the procedure: The antibacterial activity of each of the compounds against the bacterial strains E. faceium (ATCC 49624), S. epidermidis (ATCC 12228), S. aureus (ATCC 29213), E. faecalis (CL 4877) and E. faecalis (ATCC 292121) was tested. Each of the compounds was screened in a 96 will agar array format.

In a further experiment the test system is S. aureus (ATCC 29213). In kind it is cell-based. The arrangement: scale not given here. To be noted: zone of inhibition relative to 1 mg/ml stock solution of p-chlorobiphenylvancomycin. The procedure, abridged:
as §1

Setting [1] is: zone of inhibition relative to 1 mg/ml stock solution of p-chlorobiphenylvancomycin.
[2] abbreviates: zone of inhibition relative to 1 mg/ml p-chlorobiphenylvancomycin.
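Throughout, for zone score, E. faecium ATCC 49624: score 3 means fourfold and score 4 sixteenfold the reference zone size.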

On to `C[C@H]1O[C@H](O[C@H]2[C@H](Oc3c4cc5cc3Oc3ccc(cc3Cl)[C@@H](O)[C@@H](NC(=O)[C@@H](N)CCCNC(N)=O)C(=O)N[C@@H](CC(N)=O)C(=O)N[C@H]5C(=O)N[C@H]3C(=O)N[C@H](C(=O)N[C@@H](C(=O)O)c5cc(O)cc(O)c5-c5cc3ccc5O)[C@H](O)c3ccc(c(Cl)c3)O4)O[C@H](CO)[C@@H](O)[C@@H]2O)C[C@@](C)(NCc2ccc(-c3ccc(Cl)cc3)cc2)[C@H]1O` [Compound 5], for which, in the experiment on E. faecalis (CL 4877) (setting [1]), the “zone score, E. faecalis CL 4877” value was determined as 2. For the same molecule, the “zone score, E. faecium ATCC 49624” value in the experiment with E. faceium (ATCC 49624) (setting [1]) is on record as 2.

Turning to `CC1OC(OC2C(Oc3c4cc5cc3Oc3ccc(cc3Cl)C(O)C3NC(=O)C(NC(=O)C5NC(=O)C(CC(N)=O)NC(=O)C(NC(=O)C(N)Cc5cccs5)C(O)c5ccc(c(Cl)c5)O4)c4ccc(O)c(c4)-c4c(O)cc(O)cc4C(C(=O)O)NC3=O)OC(CO)C(O)C2O)CC(C)(NCc2ccc(-c3ccc(Cl)cc3)cc2)C1O` (stereo not shown) [Compound 10], in the experiment on S. aureus (ATCC 29213), the “zone score, S. aureus ATCC 29213” value is given as 2. In addition, the “zone score, E. faecium ATCC 49624” value with E. faceium (ATCC 49624) (setting [1]) worked out at 2. In the case of `CC(O)C(N)C(=O)NC1C(=O)NC(CC(N)=O)C(=O)NC2C(=O)NC3C(=O)NC(C(=O)NC(C(=O)O)c4cc(O)cc(O)c4-c4cc3ccc4O)C(O)c3ccc(c(Cl)c3)Oc3cc2cc(c3OC2OC(CO)C(O)C(O)C2OC2CC(C)(NCc3ccc(-c4ccc(Cl)cc4)cc3)C(O)C(C)O2)Oc2ccc(cc2Cl)C1O` (stereo not shown) [Compound 43], in the experiment on E. faecalis (CL 4877) (setting [1]), the “zone score, E. faecalis CL 4877” value is listed as 2. Also, the “zone score, E. faecium ATCC 49624” value with E. faceium (ATCC 49624) (setting [1]) was found to be 2. Regarding `CC1OC(OC2C(Oc3c4cc5cc3Oc3ccc(cc3Cl)C(O)C3NC(=O)C(NC(=O)C5NC(=O)C(CC(N)=O)NC(=O)C(NC(=O)CCN)C(O)c5ccc(c(Cl)c5)O4)c4ccc(O)c(c4)-c4c(O)cc(O)cc4C(C(=O)O)NC3=O)OC(CO)C(O)C2O)CC(C)(NCc2ccc(-c3ccc(Cl)cc3)cc2)C1O` (stereo not shown) [Compound 47], the “zone score, E. faecalis CL 4877” value with E. faecalis (CL 4877) (setting [1]) stood at 2. For the same molecule, in the experiment on E. faceium (ATCC 49624) (setting [1]), the “zone score, E. faecium ATCC 49624” value came out at 2. For the molecule `CSCC(N)C(=O)NC1C(=O)NC(CC(N)=O)C(=O)NC2C(=O)NC3C(=O)NC(C(=O)NC(C(=O)O)c4cc(O)cc(O)c4-c4cc3ccc4O)C(O)c3ccc(c(Cl)c3)Oc3cc2cc(c3OC2OC(CO)C(O)C(O)C2OC2CC(C)(NCc3ccc(-c4ccc(Cl)cc4)cc3)C(O)C(C)O2)Oc2ccc(cc2Cl)C1O` (stereo not shown) [Compound 50], the “zone score, E. faecalis CL 4877” value in the experiment with E. faecalis (CL 4877) (setting [1]) is reported as 2. The “zone score, E. faecium ATCC 49624” value with E. faceium (ATCC 49624) (setting [1]) is on record as 2. As to `CC1OC(OC2C(Oc3c4cc5cc3Oc3ccc(cc3Cl)C(O)C3NC(=O)C(NC(=O)C5NC(=O)C(CC(N)=O)NC(=O)C(NC(=O)CC(O)C[N+](C)(C)C)C(O)c5ccc(c(Cl)c5)O4)c4ccc(O)c(c4)-c4c(O)cc(O)cc4C(C(=O)O)NC3=O)OC(CO)C(O)C2O)CC(C)(NCc2ccc(-c3ccc(Cl)cc3)cc2)C1O` (stereo not shown) [Compound 149], the “zone score, E. faecalis CL 4877” value in the experiment with E. faecalis (CL 4877) (setting [1]) is listed as 2. Moreover, in the experiment with E. faceium (ATCC 49624) (setting [1]), the “zone score, E. faecium ATCC 49624” value stood at 2. For `CC1OC(OC2C(Oc3c4cc5cc3Oc3ccc(cc3Cl)C(O)C3NC(=O)C(NC(=O)C5NC(=O)C(CC(N)=O)NC(=O)C(NC(=O)C(N)CCCNC(=N)N)C(O)c5ccc(c(Cl)c5)O4)c4ccc(O)c(c4)-c4c(O)cc(O)cc4C(C(=O)O)NC3=O)OC(CO)C(O)C2O)CC(C)(NCc2ccc(-c3ccc(Cl)cc3)cc2)C1O` (stereo not shown) [Compound 217], the “zone score, E. faecalis CL 4877” value in the experiment with E. faecalis (CL 4877) (setting [2]) is listed as 2. Further, the “zone score, E. faecium ATCC 49624” value in the experiment on E. faceium (ATCC 49624) (setting [2]) stood at 2.

On to `CC(N)C(=O)NC1C(=O)NC(CC(N)=O)C(=O)NC2C(=O)NC3C(=O)NC(C(=O)NC(C(=O)O)c4cc(O)cc(O)c4-c4cc3ccc4O)C(O)c3ccc(c(Cl)c3)Oc3cc2cc(c3OC2OC(CO)C(O)C(O)C2OC2CC(C)(NCc3ccc(-c4ccc(Cl)cc4)cc3)C(O)C(C)O2)Oc2ccc(cc2Cl)C1O` (stereo not shown) [Compound 220], for which, in the experiment on E. faceium (ATCC 49624) (setting [2]), the “zone score, E. faecium ATCC 49624” value stood at 2.

On to `CC1OC(OC2C(Oc3c4cc5cc3Oc3ccc(cc3Cl)C(O)C3NC(=O)C(NC(=O)C5NC(=O)C(CC(N)=O)NC(=O)C(NC(=O)CCS(=O)(=O)c5ccccc5)C(O)c5ccc(c(Cl)c5)O4)c4ccc(O)c(c4)-c4c(O)cc(O)cc4C(C(=O)O)NC3=O)OC(CO)C(O)C2O)CC(C)(NCc2ccc(-c3ccc(Cl)cc3)cc2)C1O` (stereo not shown) [Compound 246], for which the “zone score, E. faecium ATCC 49624” value with E. faceium (ATCC 49624) (setting [2]) is given as 2.
